In article PMC9686516, “Pharmacokinetic Characteristics of Nebulized Colistimethate Sodium Using Two Different Types of Nebulizers in Critically Ill Patients with Ventilator-Associated Respiratory Infections” (Antibiotics, 2022):
Where two headings read alike, the source gives them in different places. Where a SMILES comes first, the peptide text is derived from it. Bridges are numbered along the chain shown (N, C = ends). [ ]: non-standard residue; d: D form. The star is where a group is joined. X1 = CC[C@H](C)CCCCC(=O)*; Dab = NCC[C@H](N)C(=O)O

What was measured:
[1] = Colistin pharmacokinetics in plasma after nebulized CMS in ventilated VARI patients; type: in vivo, human; conditions: for Volume of distribution/ fraction of dose absorbed / Clearance/fraction of dose absorbed / Cmax / AUC0–8 h: NCA; for Volume of distribution/ fraction of dose absorbed: dose/(λ × AUCinf); for Volume of distribution/ fraction of dose absorbed / Clearance/fraction of dose absorbed / Cmax / Cmin / AUC0–8 h / level at 0.5 h / level at 1 h / level at 2 h / level at 4 h / level at 6 h / level at 8 h / Tmax: median (IQR); for Clearance/fraction of dose absorbed: dose/AUCinf; for AUC0–8 h: no systemic CMS, HPLC-fluorescence; for level at 0.5 h / level at 1 h / level at 2 h / level at 4 h / level at 6 h / level at 8 h / Tmax: 2 mIU; for level at 0.5 h: 0.5 h post-nebulization; for level at 0.5 h / level at 1 h / level at 2 h / level at 4 h / level at 6 h / level at 8 h: read-out: Ccolistin, plasma; for level at 1 h: 1 h post-nebulization; for level at 2 h: 2 h post-nebulization; for level at 4 h: 4 h post-nebulization; for level at 6 h: 6 h post-nebulization; for level at 8 h: 8 h post-nebulization
Description: The study population consisted of 24 critically ill adult patients, admitted to the intensive care unit of the First Department of Pulmonology of the National and Kapodistrian University of Athens between June 2014 and November 2017. All patients were intubated and mechanically ventilated, and received inhaled CMS as part of their treatment for VAP or VAT caused by Gram-negative pathogens. Subjects were studied around the first dose of nebulized treatment, which always preceded intravenous treatment, to avoid confounding by colistin (or CMS) reaching the ELF via the systemic circulation. We excluded patients that received a dose different to the institution’s standard of 2 million international units (mIU) (~160 mg) of CMS and patients who were planned to receive intravenous colistin within 8 h of nebulization initiation.
A dose of 2 mIU of CMS (Colistin®, Norma Hellas, Athens, Greece), corresponding to approximately 160 mg CMS or 68 mg colistin-base activity, was nebulized over a 10–30 min period via either VMN (Aeroneb Solo with Aeroneb Pro controller, Aerogen, Galway, Ireland) or generic JN. This was not a randomized trial, and the nebulizer selection was exclusively a matter of availability of VMN consumables in the ICU at the time. The intended dose was dissolved in 4 mL of normal saline 0.9%. The nebulizer was placed at the inspiratory limb of the ventilator circuit, at 15 cm from the Y-piece, and the heat and moisture exchanger was removed. During nebulization, the patients were sedated and ventilated using assist volume controlled mode, with tidal volume set at 8 mL/kg of ideal body weight, a constant squared-wave inspiratory flow, a positive end expiratory pressure (PEEP) of less than or equal to 10 cm H2O, an inspiratory to expiratory time ratio equal to 1, an inspiratory pause of 10%, and a respiratory rate set at 15/min [31].
[…] The specimens were immediately centrifuged (3500× g for 10 min) in a frigid centrifuge (at 4 °C) and supernatants were collected in Eppendorfs and were frozen at −80 °C until analysis.
Colistin concentrations in plasma (Ccolistin,plasma) and epithelial lining fluid (Ccolistin,ELF) were measured through high performance liquid chromatography (HPLC)-fluorescence analysis.
The samples were rapidly centrifuged, and plasma and BAL supernatant were separated and kept frozen (−80 °C) before analysis, as previously described. An HPLC-RF assay was used for colistin concentration measurements in plasma and BAL fluid samples, based on the method of Li et al., as modified by Markou et al. and Ratjen et al.. Briefly, netilmicin was used as the internal standard and the method consisted of a protein precipitation step with trifluoracetic acid (TFA), followed by colistin derivatization with 9-fluorenylmethyl chloroformate on a solid phase extraction C18 cartridge. The eluted fluid was dried under vacuum and the solid residue was reconstituted in mobile phase for subsequent reversed-phase HPLC with fluorescence detection (excitation: 260 nm; emission: 316 nm). The analytical column was a Phenomenex Luna C18, 3 μm, 50 mm × 3 mm with 100 Å particle size, while the mobile phase consisted of ACN/THF/H2O (80/7.7/12.3%) with a flow rate of 0.5 mL/min. The injection volume was 20 μL. The method was linear at a concentration range of 0.10–4.8 mg/L (R^2 = 0.999). The limit of detection (LOD) and lower limit of quantification (LLOQ) were 0.01 and 0.04 mg/L, respectively, while the intra- and inter-assay variabilities were less than 16%. Representative chromatograms and calibration curves in plasma and BAL are given in the Supplementary Material (Figures S1 and S2).
PK analysis was performed on measured serum and ELF concentrations using the Phoenix® version 8.3 PK/PD software package (Certara, Princeton, NJ, USA). […]

Pseudomonas aeruginosa = conditions: animal thigh and lung infection models; cited from earlier work
Acinetobacter baumannii = conditions: animal thigh and lung infection models; cited from earlier work
[2] = adjunctive aerosolized colistin; meta-analysis of mostly observational data; cited from earlier work
Description: The rationale has been the theoretic ability to achieve sufficient concentration in the infectious milieu of the lung parenchyma while sparing any significant systemic adverse outcome. In contrast to these theoretical considerations, inhaled CMS has only had modest efficacy and in ...

[3] = human, inhaled or intranasal, JN, n = 6, 2 mIU CMS inhaled
[4] = human, inhaled or intranasal, VMN, n = 18, 2 mIU CMS inhaled

Q: What does the source list for CC[C@H](C)CCCCC(=O)N[C@@H](CCN)C(=O)N[C@H](C(=O)N[C@@H](CCN)C(=O)N[C@H]1CCNC(=O)[C@H]([C@@H](C)O)NC(=O)[C@H](CCN)NC(=O)[C@H](CCN)NC(=O)[C@H](CC(C)C)NC(=O)[C@@H](CC(C)C)NC(=O)[C@H](CCN)NC1=O)[C@@H](C)O [colistin] (X1-[Dab]T[Dab][Dab][Dab][dL]L[Dab][Dab]T; lactam 4-C)?
A: Ccolistin over 2 mg/L, frequency of patients ([1]; 30 min, JN, n = 6, 2 mIU CMS inhaled): 0%; Ccolistin over 2 mg/L, frequency of patients ([1]; 30 min, VMN, n = 18, 2 mIU CMS inhaled): 0%; Ccolistin over 2 mg/L, frequency of patients ([1]; 60 min, JN, n = 6, 2 mIU CMS inhaled): 16.7%; Ccolistin over 2 mg/L, frequency of patients ([1]; 60 min, VMN, n = 18, 2 mIU CMS inhaled): 61.1%; Ccolistin over 2 mg/L, frequency of patients ([1]; 120 min, JN, n = 6, 2 mIU CMS inhaled): 16.7%; Ccolistin over 2 mg/L, frequency of patients ([1]; 120 min, VMN, n = 18, 2 mIU CMS inhaled): 22.2%; Ccolistin over 2 mg/L, frequency of patients ([1]; 240 min, JN, n = 6, 2 mIU CMS inhaled): 16.7%; Ccolistin over 2 mg/L, frequency of patients ([1]; 240 min, VMN, n = 18, 2 mIU CMS inhaled): 5.6%; Ccolistin over 2 mg/L, frequency of patients ([1]; 360 min, JN, n = 6, 2 mIU CMS inhaled): 0%; Ccolistin over 2 mg/L, frequency of patients ([1]; 360 min, VMN, n = 18, 2 mIU CMS inhaled): 0%; Ccolistin over 2 mg/L, frequency of patients ([1]; 480 min, JN, n = 6, 2 mIU CMS inhaled): 0%; Ccolistin over 2 mg/L, frequency of patients ([1]; 480 min, VMN, n = 18, 2 mIU CMS inhaled): 0%; Volume of distribution/ fraction of dose absorbed ([1]; JN, n = 6, 2 mIU CMS inhaled): 129.8 (95.6–151.9) L; Clearance/fraction of dose absorbed ([1]; JN, n = 6, 2 mIU CMS inhaled): 37.6 (23.2–39.9) L/h; Cmax ([1]; JN, n = 6, 2 mIU CMS inhaled): 0.3 (0.3–1.6) mg/L; AUC0–24 ([1]; JN, n = 6, 2 mIU CMS inhaled, calculated as AUCinf × 3, median (IQR)): 4.0 (3.8–19.3) mg/L∙h; Cmin ([1]; JN, n = 6, 2 mIU CMS inhaled): 0.1 (0.1–0.2) mg/L; AUC0–8 h ([1]; JN, n = 6, 2 mIU CMS inhaled): 1.3 (1.3–6.4) mg/L∙h; Mean T1/2 (SD) ([1]; JN, n = 6, 2 mIU CMS inhaled, t1/2 = 0.693/λ, mean (SD), SD): 2.4 (0.5) h; Volume of distribution/ fraction of dose absorbed ([1]; VMN, n = 18, 2 mIU CMS inhaled): 22.8 (16.8–33.0) L; Clearance/fraction of dose absorbed ([1]; VMN, n = 18, 2 mIU CMS inhaled): 7.3 (6.0–9.1) L/h; Cmax ([1]; VMN, n = 18, 2 mIU CMS inhaled): 2.6 (2.0–3.5) mg/L; Cmin ([1]; VMN, n = 18, 2 mIU CMS inhaled): 0.2 (0.1–0.3) mg/L; AUC0–8 h ([1]; VMN, n = 18, 2 mIU CMS inhaled): 7.5 (5.5–8.8) mg/L∙h; level at 0.5 h [1, 3]: 100 ng/mL; level at 0.5 h [1, 4]: 600 ng/mL; level at 1 h [1, 3]: 100 ng/mL; level at 1 h [1, 4]: 2300 ng/mL; level at 2 h [1, 3]: 300 ng/mL; level at 2 h [1, 4]: 1700 ng/mL; level at 4 h [1, 3]: 200 ng/mL; level at 4 h [1, 4]: 800 ng/mL; level at 6 h [1, 3]: 100 ng/mL; level at 6 h [1, 4]: 400 ng/mL; level at 8 h [1, 3]: 100 ng/mL; level at 8 h [1, 4]: 200 ng/mL; Tmax [1, 3]: 2.2 h; Tmax [1, 4]: 1.5 h; half-life ([1]; human, inhaled or intranasal, VMN, n = 18, 2 mIU CMS inhaled, t1/2 = 0.693/λ, mean (SD), SD): 2.4 h; fAUC/MIC predicting 1-log killing (Pseudomonas aeruginosa): 12.2–22.8; fAUC/MIC predicting 1-log killing (Acinetobacter baumannii): 7–42; decrease in the odds of infection-related mortality [2]: ~40%; increase in the odds of clinical cure [2]: approximately 60%
